# Measured values: paper PMC3907537, “Evaluation of the Endothelin Receptor Antagonists Ambrisentan, Bosentan, Macitentan, and Sitaxsentan as Hepatobiliary Transporter Inhibitors and Substrates in Sandwich-Cultured Human Hepatocytes” (PLoS ONE, 2014)
# Like-named read-outs stand apart in the source and are kept apart here.
# Target: T1, OATP1B1 (Homo sapiens, UniProt Q9Y6L6)
# T1 construct: host or cells: CHO
# T1 sequence (Q9Y6L6 1-691): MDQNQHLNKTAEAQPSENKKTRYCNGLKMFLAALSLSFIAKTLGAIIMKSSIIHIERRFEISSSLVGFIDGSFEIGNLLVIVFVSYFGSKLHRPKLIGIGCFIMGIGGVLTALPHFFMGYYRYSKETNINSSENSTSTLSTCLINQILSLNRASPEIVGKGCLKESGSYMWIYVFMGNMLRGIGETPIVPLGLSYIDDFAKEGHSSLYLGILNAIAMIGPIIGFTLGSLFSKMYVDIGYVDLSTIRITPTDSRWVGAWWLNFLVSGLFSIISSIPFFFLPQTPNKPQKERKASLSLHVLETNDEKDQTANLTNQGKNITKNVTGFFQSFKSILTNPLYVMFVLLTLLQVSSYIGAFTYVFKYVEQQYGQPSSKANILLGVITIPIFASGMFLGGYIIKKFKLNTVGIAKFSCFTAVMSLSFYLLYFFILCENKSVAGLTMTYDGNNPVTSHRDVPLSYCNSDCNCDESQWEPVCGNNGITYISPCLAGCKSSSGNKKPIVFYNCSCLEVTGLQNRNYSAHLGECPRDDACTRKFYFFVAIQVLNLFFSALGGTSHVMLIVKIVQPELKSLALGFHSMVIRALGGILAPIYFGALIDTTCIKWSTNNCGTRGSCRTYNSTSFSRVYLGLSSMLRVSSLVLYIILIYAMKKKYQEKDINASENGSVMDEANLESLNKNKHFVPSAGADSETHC
# Test: OATP1B1 inhibition, Fluo 3 uptake in transfected CHO cells
# Assay type: cell-based
# From the text: Chinese Hamster Ovary (CHO) cells were obtained from Professor B. Stieger’s laboratory at University of Zurich, Zurich, Switzerland. Madin-Darby Canine Kidney strain II (MDCKII) cells were obtained from Nederlands Kanker Instituut (NKI), Amsterdam, Netherlands. NTCP-CHO cells, BSEP and MRP2 membrane vesicles were developed and validated at Solvo Biotechnology, Budaors, Hungary.
# CHO cells, either wild type or transfected with the genes encoding human NTCP, OATP1B1 and OATP1B3, were maintained in Dulbecco’s Modification of Eagle’s Medium (DMEM) containing 1,000 mg/L D-glucose, L-glutamine, 25 mM HEPES buffer, 110 mg/L sodium pyruvate, 1% Penicillin/Streptomycin, 10% fetal bovine serum (FBS), 0.05 mg/mL L proline and 0.5 mg/mL of geneticin G-418. Cells were maintained in incubators set at 37°C, 90% humidity and 5% CO2. OATP1B1 and OATP1B3 over-expressing cells were seeded in BioCoat Poly-D-Lysine coated 96-well black cell culture plates with clear bottoms at a density of 1×10^5 cells/well. Sodium butyrate (10 mM) was added to the OATP1B1 and OATP1B3 cells once seeded to increase the protein expression level and the cells were grown to confluence overnight. The assay buffer contained 142 mM NaCl, 5 mM KCl, 1 mM KH2PO4, 1.2 mM MgSO4, 1.5 mM CaCl2, 5 mM Glucose and 12.5 mM HEPES (pH 7.4). After removal of the media and before adding test compounds, the cells were washed twice with 37°C assay buffer followed by a 0.5 h pre-incubation with assay buffer. […] Wells were analyzed for Fluo 3 fluorescence at an excitation of 485 nm and emission of 530 nm. Inhibition of NTCP was studied using similar conditions to those described for OATP1B1 and OATP1B3 except that inhibition of the uptake ^3H taurocholate into transfected CHO cells was monitored using radioactive scintillation counting.
# All assays were performed in duplicate. […] IC50 values were calculated using non-linear fitting of % inhibition versus concentration to a sigmoidal curve with a variable Hill Coefficient using GraphPad Prism 5 (GraphPad Software Inc., San Diego, CA).
# [1] = CHO cells, Fluo 3, mean ± SD of 3 independent studies in duplicate, tested 0.14–100 µM, read-out: OATP1B1 IC50
IC50 [1] [µM],IC50 [µM],Compound
2 ± 0.3,,CCCNS(=O)(=O)Nc1ncnc(OCCOc2ncc(Br)cn2)c1-c1ccc(Br)cc1 [macitentan]
,47 ± 21.3,COC(c1ccccc1)(c1ccccc1)[C@H](Oc1nc(C)cc(C)n1)C(=O)O [ambrisentan]
5 ± 2,,COc1ccccc1Oc1c(NS(=O)(=O)c2ccc(C(C)(C)C)cc2)nc(-c2ncccn2)nc1OCCO [bosentan]
